Reference: ChEMBL document CHEMBL6115048, “Uncovering α-Selectivity for Liver X Receptor Agonists for Lipotoxic Cancer Therapies” (J Med Chem, 2025)
pEC50: −log10 of the molar value. Active and inactive are the calls of the source. No cut-off for these calls is given here.

Experiments:
[1] = biological target: T1, Vitamin D3 receptor (Homo sapiens) (UniProt P11473); assay: Agonist activity at VDR (unknown origin) transfected in human HepG2 cells co-transfected with renilla reniformis luciferase reporter at 10 uM incubated for 24 hrs by dual-luciferase reporter gene assay; format: cell-based
T1 sequence (whole entry): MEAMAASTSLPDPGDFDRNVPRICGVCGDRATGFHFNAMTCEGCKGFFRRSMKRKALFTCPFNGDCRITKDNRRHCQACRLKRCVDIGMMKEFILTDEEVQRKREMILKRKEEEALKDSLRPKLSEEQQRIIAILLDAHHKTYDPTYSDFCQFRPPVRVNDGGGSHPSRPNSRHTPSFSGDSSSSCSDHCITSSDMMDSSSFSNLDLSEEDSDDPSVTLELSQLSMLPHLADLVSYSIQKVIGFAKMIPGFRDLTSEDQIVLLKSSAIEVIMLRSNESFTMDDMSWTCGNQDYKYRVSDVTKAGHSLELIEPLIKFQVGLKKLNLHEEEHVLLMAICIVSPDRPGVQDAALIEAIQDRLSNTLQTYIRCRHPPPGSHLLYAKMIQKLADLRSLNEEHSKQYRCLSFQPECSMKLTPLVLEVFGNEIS

[2] = biological target: T2, Peroxisome proliferator-activated receptor alpha (Homo sapiens) (UniProt Q07869); assay: Agonist activity at PPARalpha (unknown origin) transfected in human HepG2 cells co-transfected with renilla reniformis luciferase reporter at 10 uM incubated for 24 hrs by dual-luciferase reporter gene assay; format: cell-based
T2 sequence (whole entry): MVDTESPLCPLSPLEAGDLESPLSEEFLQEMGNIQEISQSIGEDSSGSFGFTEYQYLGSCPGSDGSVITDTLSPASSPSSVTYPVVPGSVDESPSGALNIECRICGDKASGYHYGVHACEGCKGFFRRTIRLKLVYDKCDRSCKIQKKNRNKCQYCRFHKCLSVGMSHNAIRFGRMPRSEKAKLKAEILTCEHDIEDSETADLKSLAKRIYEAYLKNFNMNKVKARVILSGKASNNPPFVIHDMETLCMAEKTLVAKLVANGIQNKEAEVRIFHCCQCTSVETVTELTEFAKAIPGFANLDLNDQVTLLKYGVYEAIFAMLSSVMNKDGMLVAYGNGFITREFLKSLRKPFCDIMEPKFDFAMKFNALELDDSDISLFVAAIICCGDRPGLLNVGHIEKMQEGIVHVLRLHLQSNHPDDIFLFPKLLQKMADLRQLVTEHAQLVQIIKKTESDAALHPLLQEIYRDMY

[3] = biological target: Estrogen receptor beta (Homo sapiens) (UniProt Q92731); assay: Agonist activity at ERbeta (unknown origin) transfected in human HepG2 cells co-transfected with renilla reniformis luciferase reporter at 10 uM incubated for 24 hrs by dual-luciferase reporter gene assay; format: cell-based
Chain of Estrogen receptor beta (Homo sapiens) (Q92731 whole entry): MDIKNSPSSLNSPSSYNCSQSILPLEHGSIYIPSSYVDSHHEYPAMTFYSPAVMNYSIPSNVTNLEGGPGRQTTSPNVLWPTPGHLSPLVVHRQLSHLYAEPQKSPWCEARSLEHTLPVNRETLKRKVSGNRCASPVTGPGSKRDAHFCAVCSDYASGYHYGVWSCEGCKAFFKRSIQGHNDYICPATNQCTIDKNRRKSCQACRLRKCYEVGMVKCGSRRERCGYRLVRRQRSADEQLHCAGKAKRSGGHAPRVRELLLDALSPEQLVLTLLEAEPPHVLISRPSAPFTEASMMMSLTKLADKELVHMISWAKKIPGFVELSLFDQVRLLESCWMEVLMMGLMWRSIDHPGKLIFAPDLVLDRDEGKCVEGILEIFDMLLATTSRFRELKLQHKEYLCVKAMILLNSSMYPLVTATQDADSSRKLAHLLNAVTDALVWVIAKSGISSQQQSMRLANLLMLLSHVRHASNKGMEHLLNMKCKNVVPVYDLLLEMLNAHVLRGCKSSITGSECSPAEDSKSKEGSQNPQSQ

[4] = biological target: T3, Bile acid receptor (Homo sapiens) (UniProt Q96RI1); assay: Agonist activity at FXR (unknown origin) transfected in human HepG2 cells co-transfected with renilla reniformis luciferase reporter at 10 uM incubated for 24 hrs by dual-luciferase reporter gene assay; format: cell-based
T3 sequence (whole entry): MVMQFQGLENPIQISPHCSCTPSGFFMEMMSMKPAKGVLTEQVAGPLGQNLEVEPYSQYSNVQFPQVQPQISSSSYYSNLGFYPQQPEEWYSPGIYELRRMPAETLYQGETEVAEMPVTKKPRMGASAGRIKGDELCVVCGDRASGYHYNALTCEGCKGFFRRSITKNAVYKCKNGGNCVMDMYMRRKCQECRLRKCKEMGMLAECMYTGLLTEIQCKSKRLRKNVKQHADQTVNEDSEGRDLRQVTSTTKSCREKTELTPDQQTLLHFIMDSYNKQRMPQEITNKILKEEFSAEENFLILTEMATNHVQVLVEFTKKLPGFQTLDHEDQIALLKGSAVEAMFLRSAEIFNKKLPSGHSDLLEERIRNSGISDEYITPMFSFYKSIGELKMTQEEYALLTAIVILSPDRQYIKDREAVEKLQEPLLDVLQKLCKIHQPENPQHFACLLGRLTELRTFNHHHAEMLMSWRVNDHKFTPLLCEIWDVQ

[5] = biological target: T4, Nuclear receptor subfamily 1 group I member 3 (Mus musculus, UniProt O35627); assay: Agonist activity at mouse CAR transfected in human HepG2 cells co-transfected with p2B6-luciferase reporter at 10 uM incubated for 24 hrs by dual-luciferase reporter gene assay; format: cell-based; conditions: hepg2, 24 h
T4 sequence (O35627 whole entry): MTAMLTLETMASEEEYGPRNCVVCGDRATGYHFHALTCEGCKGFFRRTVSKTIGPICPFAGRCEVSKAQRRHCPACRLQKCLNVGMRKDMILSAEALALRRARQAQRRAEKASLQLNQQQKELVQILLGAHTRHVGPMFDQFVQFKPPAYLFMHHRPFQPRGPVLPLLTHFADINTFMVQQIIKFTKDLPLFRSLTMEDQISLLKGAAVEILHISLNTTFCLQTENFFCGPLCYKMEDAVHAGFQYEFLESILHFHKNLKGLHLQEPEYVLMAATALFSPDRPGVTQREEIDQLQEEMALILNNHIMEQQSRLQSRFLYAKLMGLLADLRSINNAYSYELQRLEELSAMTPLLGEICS

Hep 3B2 [6] = assay: Antiproliferative activity against human Hep3B cells assessed as reduction in cell viability measured after 5 days in presence of sorafenib by Celltiter-glo assay; format: functional, cell-based; conditions: 120 h
Hep 3B2 [7] = assay: Induction of endoplasmic reticulum (ER) stress in human Hep3B cells assessed as increase in CHOP expression measured after 3 days in presence of sorafenib by Western blot analysis; format: functional, cell-based; conditions: time 3.0 day
Hep 3B2 [8] = assay: Antiproliferative activity against human Hep3B cells assessed as reduction in cell viability at 0.01 to 100 uM measured after 5 days in presence of sorafenib and sodium oleate by CellTiter-Glo assay; format: functional, cell-based; conditions: dose 0.01-100 µM, time 5.0 day
BNL CL.2 = assay: Cytotoxicity against mouse BNL CL.2 cells assessed as reduction in cell viability at 0.01 to 100 uM measured after 5 days in presence of sorafenib by CellTiter-Glo assay; format: toxicity, cell-based; conditions: bnl cl.2, 120 h, dose 0.01-100 µM, time 5 day
Hep 3B2 [9] = assay: Induction of oxidative stress in human Hep3B cells assessed as increase in SOD1 expression measured after 3 days in presence of sorafenib by Western blot analysis; format: functional, cell-based; conditions: time 3.0 day

- Activity [1]: inactive
- Activity [2]: inactive
- Activity [3]: inactive
- Activity [4]: inactive
- Activity [5]: Not_active
SMILES: O=C1C(Nc2ccc(N3CCCCC3)cc2)=C(c2ccccc2)C(=O)N1Cc1ccccc1
- pEC50 (Hep 3B2 [6]): 5.77
- Activity (Hep 3B2 [7]): Active
- Activity (Hep 3B2 [8]): inactive
- Activity (BNL CL.2): Toxic
- Activity (Hep 3B2 [9]): Active
